Experimental data published in patent publication US20210255193A1, “LYSINE REACTIVE PROBES AND USES THEREOF” (The Scripps Research Institute, priority 2017, published 2021).

Columns and labels:
Assay in all cases: direct labeling of recombinantly expressed proteins by gel-based ABPP (WT vs lysine mutant)
Type in all cases: binding
[1] = molecular target: T1, PMVK (Homo sapiens, UniProt Q15126); conditions: PMVK K48, KR mutant; 10 μM probe, 1 h
T1 construct: expressed in transfected cells; host or cells: HEK 293T
T1 sequence (Q15126 1-192): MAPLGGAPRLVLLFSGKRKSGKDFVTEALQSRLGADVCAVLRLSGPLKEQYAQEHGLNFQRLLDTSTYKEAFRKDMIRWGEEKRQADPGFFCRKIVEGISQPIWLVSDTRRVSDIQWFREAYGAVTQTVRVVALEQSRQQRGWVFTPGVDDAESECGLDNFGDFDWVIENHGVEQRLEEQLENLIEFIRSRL
Source text: (§1) Subcloning and mutagenesis. Unless noted below, genes were amplified from cDNA prepared from low passage HEK 293T cells using the Ribozol RNA extraction reagent (Amresco) and the iScript Reverse Transcription Supermix kit (Bio-Rad). For the following proteins cDNA clones were used for amplification instead: PFKP (5180268, Dharmacon), HK1 (BC008730, transomic), SIN3A (BC137098, transomic), G6PD (BC000337, transomic) and TGIF1 (BC031268, transomic). Mouse CARM1 in pFLAG-CMV-6c was a kind gift from the Mowen lab (TSRI). NUDT2 was obtained as synthesized gene (IDT). DNA was amplified with custom forward and reverse primers using phusion polymerase (NEB, M0530S), digested with the indicated restriction enzyme and ligated into pFLAG-CMV-6c or pRK5 with the appropriate affinity tag. Lysine mutants were generated using QuikChange site-directed mutagenesis using Phusion® High-Fidelity DNA Polymerase and primers containing the desired mutations and their respective complements. The cloning of TTR and its K35A mutant has been described in Choi et al., “Chemoselective small molecules that covalently modify one lysine in a non-enzyme protein in plasma,” Nat. Chem. Biol. 6, 133-139 (2010). TTR was expressed in E. coli and purified as described. For gel-based experiments 1 μM TTR was added into 1 mg ml^−1 soluble MDA-MB-231 lysate.
(§2) Recombinant expression of proteins by transient transfection. HEK 293T cells were grown to 50% confluency in 10 ml DMEM supplemented with 10% fetal bovine serum (FBS), penicillin, streptomycin and glutamine in 10 cm tissue culture dishes. 3 μg of DNA was diluted in 500 μL DMEM and 30 μL of PEI (MW 40,000, 1 mg ml^−1, Polysciences) were added. The mixture was incubated at room temperature for 30 min and added dropwise to the cells. Cells were grown for 48 h at 37° C. with 5% CO2. Cells were washed with cold PBS, scraped with cold PBS and cell pellets were isolated by centrifugation (1,400 g, 3 min, 4° C.), and stored at −80° C. until use. Cell pellets were resuspended in PBS, lysed by sonication and fractionated (100,000 g, 45 min) to yield soluble and membrane fractions. The soluble fraction was adjusted to a final protein concentration of 1 mg ml^−1 for gel-based ABPP experiments.
(§3) Direct labeling of recombinantly expressed proteins by gel-based ABPP. 50 μL of soluble HEK 293T proteome (1 mg ml^−1) expressing the respective protein (WT or KR mutant) or transfected with an empty vector were treated with 10 μM of the indicated probe for 1 h at room temperature. The samples were analyzed as described in the previous section. For quantification of relative labeling of the different protein variants, the intensity of labeling was determined by quantifying the integrated optical intensity of the bands using ImageLab 5.2.1 software (BioRad).

[2] = molecular target: T2, Sin3a (Homo sapiens, UniProt Q96ST3); conditions: Sin3a K155, KR mutant; 10 μM probe, 1 h
T2 construct: expressed in transfected cells; host or cells: HEK 293T
T2 sequence (Q96ST3 1-400): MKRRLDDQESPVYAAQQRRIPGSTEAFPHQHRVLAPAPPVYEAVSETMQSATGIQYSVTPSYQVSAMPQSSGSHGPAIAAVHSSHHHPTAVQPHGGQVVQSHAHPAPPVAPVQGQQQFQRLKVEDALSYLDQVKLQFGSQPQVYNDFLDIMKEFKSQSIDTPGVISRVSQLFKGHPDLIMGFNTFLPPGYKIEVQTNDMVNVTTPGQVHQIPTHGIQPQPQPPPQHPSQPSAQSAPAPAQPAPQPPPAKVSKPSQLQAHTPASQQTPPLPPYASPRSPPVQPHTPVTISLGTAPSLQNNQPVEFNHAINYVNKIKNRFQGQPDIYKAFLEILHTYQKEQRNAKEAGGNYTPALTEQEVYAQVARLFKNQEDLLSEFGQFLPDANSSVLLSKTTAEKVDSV
Source text: as §1, §2, §3

[3] = molecular target: T3, PFKM (Homo sapiens, UniProt P08237); conditions: PFKM K678, KR mutant; 10 μM probe, 1 h
T3 construct: expressed in transfected cells; host or cells: HEK 293T
T3 sequence (P08237 1-780): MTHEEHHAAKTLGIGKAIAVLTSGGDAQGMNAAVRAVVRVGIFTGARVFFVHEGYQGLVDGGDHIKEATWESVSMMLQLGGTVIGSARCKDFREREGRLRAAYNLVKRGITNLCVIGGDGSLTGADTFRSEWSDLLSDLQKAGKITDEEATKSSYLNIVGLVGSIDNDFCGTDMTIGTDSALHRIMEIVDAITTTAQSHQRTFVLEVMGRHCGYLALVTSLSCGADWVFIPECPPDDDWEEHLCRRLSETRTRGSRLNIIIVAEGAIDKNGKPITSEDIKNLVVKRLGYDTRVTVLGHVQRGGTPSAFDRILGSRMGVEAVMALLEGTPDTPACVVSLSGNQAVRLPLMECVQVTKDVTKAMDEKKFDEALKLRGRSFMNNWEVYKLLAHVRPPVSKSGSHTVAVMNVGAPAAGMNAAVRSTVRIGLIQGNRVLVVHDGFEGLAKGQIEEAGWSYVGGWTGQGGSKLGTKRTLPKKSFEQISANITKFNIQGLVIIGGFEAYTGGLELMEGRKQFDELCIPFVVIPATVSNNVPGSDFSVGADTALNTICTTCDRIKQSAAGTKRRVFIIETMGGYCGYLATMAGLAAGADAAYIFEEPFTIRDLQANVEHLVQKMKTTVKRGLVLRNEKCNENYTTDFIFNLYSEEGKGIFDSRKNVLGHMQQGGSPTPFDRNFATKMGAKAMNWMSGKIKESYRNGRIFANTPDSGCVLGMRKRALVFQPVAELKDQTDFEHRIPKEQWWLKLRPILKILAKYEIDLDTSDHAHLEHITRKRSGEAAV
Source text: as §1, §2, §3

SMILES | labeling of WT vs mutant protein by probe [1] | labeling of WT vs mutant protein by probe [2] | labeling of WT vs mutant protein by probe [3]
Cc1cc(C)n2c1C=C1C=CC(CCC(=O)Oc3c(F)c(F)c(S(=O)(=O)[O-])c(F)c3F)=[N+]1[B-]2(F)F.[Na+] [probe 18, reference compound] | HD (the WT labeled more than the mutant (>4x difference quantified)) | HD (the WT labeled more than the mutant (>4x difference quantified)) | PD (the WT labeled more than the mutant (>2x difference quantified))
C#Cc1ccc(C(=O)Oc2ccccc2[N+](=O)[O-])cc1 [probe 10, 2-Nitrophenyl 4-ethynylbenzoate] | ND (the WT did not label more than the mutant (<2x difference quantified)) | HD (the WT labeled more than the mutant (>4x difference quantified)) | PD (the WT labeled more than the mutant (>2x difference quantified))
C#Cc1ccc(C(=O)Oc2c(F)c(F)cc(F)c2F)cc1 [probe 12, 2,3,5,6-Tetrafluorophenyl 4-ethynylbenzoate] | ND (the WT did not label more than the mutant (<2x difference quantified)) | HD (the WT labeled more than the mutant (>4x difference quantified)) | PD (the WT labeled more than the mutant (>2x difference quantified))
C#CCCC(=O)Oc1c(F)c(F)c(S(=O)(=O)[O-])c(F)c1F.[Na+] [probe 1, reference compound] | HD (the WT labeled more than the mutant (>4x difference quantified)) | PD (the WT labeled more than the mutant (>2x difference quantified)) | HD (the WT labeled more than the mutant (>4x difference quantified))
C#CCCC(=O)Oc1c(F)c(F)c(F)c(F)c1F [probe 6, Pentafluorophenyl 4-pentynoate] | ND (the WT did not label more than the mutant (<2x difference quantified)) | HD (the WT labeled more than the mutant (>4x difference quantified)) | ND (the WT did not label more than the mutant (<2x difference quantified))
C#Cc1ccc(C(=O)Oc2c(F)c(F)c(F)c(F)c2F)cc1 [probe 13, Pentafluorophenyl 4-ethynylbenzoate] | ND (the WT did not label more than the mutant (<2x difference quantified)) | HD (the WT labeled more than the mutant (>4x difference quantified)) | PD (the WT labeled more than the mutant (>2x difference quantified))
